Laboratory results published in patent US7727960B2, “C5a receptor antagonists” (Jerini AG, priority 2003, dated 2010).
One block for each molecule: values may come before it. Positions of bridges follow the written chain, without caps; N, C: chain ends. Non-standard residues stand in square brackets, D forms with d. Residues, ends and D or L forms follow the SMILES beside them. No end group written: not given here. *: point of attachment. Phe(4-guanidino) = N=C(N)Nc1ccc(C[C@H](N)C(=O)O)cc1; X3 = O=C1CNC(=O)N1[C@@H](Cc1ccccc1)C(=O)*; X4 = O=C1CCC(=O)N1[C@@H](Cc1ccccc1)C(=O)*; Phe(4-NH2) = Nc1ccc(C[C@H](N)C(=O)O)cc1; Phe(4-Me) = Cc1ccc(C[C@H](N)C(=O)O)cc1; 2Nal = N[C@@H](Cc1ccc2ccccc2c1)C(=O)O; Acetyl(4-pyridyl) = O=C(Cc1ccncc1)*; Bta = N[C@@H](Cc1csc2ccccc12)C(=O)O; d(hLeu) = CC(C)CC[C@@H](N)C(=O)O; 4Pal = N[C@@H](Cc1ccncc1)C(=O)O; 2Thi = N[C@@H](Cc1cccs1)C(=O)O; Cha = N[C@@H](CC1CCCCC1)C(=O)O; dCha = N[C@H](CC1CCCCC1)C(=O)O; Chg = N[C@H](C(=O)O)C1CCCCC1; hLeu = CC(C)CC[C@H](N)C(=O)O; dNle = CCCC[C@@H](N)C(=O)O; Nle = CCCC[C@H](N)C(=O)O; Orn = NCCC[C@H](N)C(=O)O

Columns and labels:
[1] = molecular target: T1, human C5aR (CD88) (Homo sapiens, UniProt P21730); assay: Determination of the IC50 value in an enzyme release assay (functional assay, antagonistic activity); format: cell-based; conditions: for IC50-value compared to compound 40 (in words): arginine replaced by hydrophobic substitutions; for inhibitory activity (in words): noteworthy = IC50 of less than 200 nM in the functional assay; for IC50: antagonistic activity, enzyme release assay in RBL cells expressing human C5aR (CD88), read-out: activity (group)
T1 construct: expressed in transfected cells; host or cells: rat basophilic leukemia cells (RBL)
T1 sequence (P21730 1-350): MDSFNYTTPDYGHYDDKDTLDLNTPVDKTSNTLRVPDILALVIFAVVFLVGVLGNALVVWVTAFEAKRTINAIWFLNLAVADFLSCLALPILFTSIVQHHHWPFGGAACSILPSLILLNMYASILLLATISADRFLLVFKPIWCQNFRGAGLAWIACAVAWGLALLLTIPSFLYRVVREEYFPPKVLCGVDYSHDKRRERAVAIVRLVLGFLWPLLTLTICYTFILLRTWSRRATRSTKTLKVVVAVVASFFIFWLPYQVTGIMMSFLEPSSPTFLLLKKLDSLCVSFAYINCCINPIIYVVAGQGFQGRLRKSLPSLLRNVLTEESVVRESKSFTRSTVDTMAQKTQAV

[2] = molecular target: T2, human C5aR (CD88) (human, UniProt P21730 1-350); assay: cell-based or functional assay
T2 sequence (looked up): T1 sequence (P21730 1-350)

inhibitory activity (in words) [1]: noteworthy inhibitory activity
Molecule: CC(=O)N[C@@H](Cc1ccccc1)C(=O)N[C@H]1CCCNC(=O)[C@H](CCC(C)C)NC(=O)[C@H](Cc2c[nH]c3ccccc23)NC(=O)[C@@H](CC2CCCCC2)NC(=O)[C@@H]2CCCN2C1=O [Compound 32, Ac-Phe-[Orn-Pro-cha-Trp-Hle]] (Ac-F[Orn]P[dCha]W[hLeu]; lactam 2-C)
IC50-value compared to compound 40 (in words) [1]: without a significant increase of the IC50-value

inhibitory activity (in words) [1]: noteworthy inhibitory activity
Molecule: CC(=O)N[C@@H](Cc1ccccc1)C(=O)N[C@H]1CCCNC(=O)[C@H](Cc2ccc(C)cc2)NC(=O)[C@H](Cc2c[nH]c3ccccc23)NC(=O)[C@@H](CC2CCCCC2)NC(=O)[C@@H]2CCCN2C1=O [Compound 36, Ac-Phe-[Orn-Pro-cha-Trp-Pmf]] (Ac-F[Orn]P[dCha]W[Phe(4-Me)]; lactam 2-C)
IC50-value compared to compound 40 (in words) [1]: without a significant increase of the IC50-value

inhibitory activity (in words) [1]: noteworthy inhibitory activity
Molecule: CC(=O)N[C@@H](Cc1ccccc1)C(=O)N[C@H]1CCCNC(=O)[C@H](Cc2ccc(N)cc2)NC(=O)[C@H](Cc2c[nH]c3ccccc23)NC(=O)[C@@H](CC2CCCCC2)NC(=O)[C@@H]2CCCN2C1=O [Compound 14, Ac-Phe-[Orn-Pro-cha-Trp-Paf]] (Ac-F[Orn]P[dCha]W[Phe(4-NH2)]; lactam 2-C)

inhibitory activity (in words) [1]: noteworthy inhibitory activity
Molecule: Ac-Phe-[Orn-Pro-cha-Trp-Ppa] (Ac-F[Orn]P[dCha]W[4Pal]; lactam 2-C (inferred))

inhibitory activity (in words) [1]: noteworthy inhibitory activity
Molecule: CC(=O)N[C@@H](Cc1ccccc1)C(=O)N[C@H]1CCCNC(=O)[C@H](Cc2cccs2)NC(=O)[C@H](Cc2c[nH]c3ccccc23)NC(=O)[C@@H](CC2CCCCC2)NC(=O)[C@@H]2CCCN2C1=O [Compound 38, Ac-Phe-[Orn-Pro-cha-Trp-Thi]] (Ac-F[Orn]P[dCha]W[2Thi]; lactam 2-C)
IC50-value compared to compound 40 (in words) [1]: without a significant increase of the IC50-value

inhibitory activity (in words) [1]: noteworthy inhibitory activity
Molecule: Ac-Phe-[Orn-Hyp(COCH2OCH2CH2OCH2CH2OCH3)-cha-Trp-Phe]

inhibitory activity (in words) [1]: noteworthy inhibitory activity
Molecule: CCSC[C@@H]1NC(=O)[C@H](Cc2c[nH]c3ccccc23)NC(=O)[C@@H](CC2CCCCC2)NC(=O)[C@@H]2CCCN2C(=O)[C@@H](NC(=O)[C@H](Cc2ccccc2)NC(C)=O)CCCNC1=O [Compound 34, Ac-Phe-[Orn-Pro-cha-Trp-Ebd]] (Ac-F[Orn]P[dCha]WC(Et); lactam 2-C)
IC50-value compared to compound 40 (in words) [1]: without a significant increase of the IC50-value

Molecule: NCCC[C@H](NC(=O)[C@H](Cc1ccccc1)N1C(=O)CCC1=O)C(=O)N1CCC[C@H]1C(=O)N[C@H](CC1CCCCC1)C(=O)N[C@@H](Cc1csc2ccccc12)C(=O)N[C@@H](Cc1ccccc1)C(N)=O [Compound 133, (—CO—CH2—CH2—CO—)-Phe-Orn-Pro-cha-Bta-Phe-NH2] (X4-[Orn]P[dCha][Bta]F-NH2)
IC50 [1]: 200 to 2000 nM

IC50 [1]: 50 to 200 nM
Molecule: NCCC[C@H](NC(=O)[C@H](Cc1ccccc1)N1C(=O)CNC1=O)C(=O)N1CCC[C@H]1C(=O)N[C@H](CC1CCCCC1)C(=O)N[C@@H](Cc1csc2ccccc12)C(=O)N[C@@H](Cc1ccccc1)C(N)=O [Compound 130, (—CO—CH2—NH—CO—)-Phe-Orn-Pro-cha-Bta-Phe-NH2] (X3-[Orn]P[dCha][Bta]F-NH2)

IC50 [1]: > 2000 nM
Molecule: CC(=O)N[C@@H](C)C(=O)N[C@H]1CCCNC(=O)[C@H](CCCN=C(N)N)NC(=O)[C@H](Cc2c[nH]c3ccccc23)NC(=O)[C@@H](CC2CCCCC2)NC(=O)[C@@H]2CCCN2C1=O [Compound 45] (Ac-A[Orn]P[dCha]WR; lactam 2-C)

inhibitory activity (in words) [1]: noteworthy inhibitory activity
Molecule: CC(=O)N[C@@H](Cc1ccccc1)C(=O)N[C@H]1CCCNC(=O)[C@H](Cc2ccc3ccccc3c2)NC(=O)[C@H](Cc2c[nH]c3ccccc23)NC(=O)[C@@H](CC2CCCCC2)NC(=O)[C@@H]2CCCN2C1=O [Compound 37, Ac-Phe-[Orn-Pro-cha-Trp-2Ni]] (Ac-F[Orn]P[dCha]W[2Nal]; lactam 2-C)
IC50-value compared to compound 40 (in words) [1]: without a significant increase of the IC50-value

IC50 activity group, enzyme release assay [2]: ≤ 200 nM
B1: Ac-Phe-[Orn-Pro-cha-Trp-Cha] (peptide)
peptide: Ac-F[Orn]P[dCha]W[Cha]
modifications: lactam (positions not given here); not fully specified (bridges); printed as Ac-Phe-[Orn-Pro-cha-Trp-Cha]

IC50 activity group, enzyme release assay [2]: ≤ 2000 nM
Molecule: FXPXWX (not fully specified; Ac-; Orn2; cha4 (D); Har6; cyclic [2-6]) [Ac-Phe-[Orn-Pro-cha-Trp-Har]]

IC50 activity group, enzyme release assay [2]: ≤ 200 nM
Molecule: Ac-F[Orn]P[dCha]W[dNle] (lactam 2-C (inferred)) [Ac-Phe-[Orn-Pro-cha-Trp-nle]]

IC50 activity group, enzyme release assay [2]: ≤ 200 nM
B2: Ac-Phe-[Orn-Pro-cha-Trp-Chg] (peptide)
peptide: Ac-F[Orn]P[dCha]W[Chg]
modifications: lactam (positions not given here); not fully specified (bridges); printed as Ac-Phe-[Orn-Pro-cha-Trp-Chg]

IC50 activity group, enzyme release assay [2]: ≤ 200 nM
B3: Ac-Phe-[Orn-Pro-cha-Trp-Leu] (peptide)
peptide: Ac-F[Orn]P[dCha]WL
modifications: lactam (positions not given here); not fully specified (bridges); printed as Ac-Phe-[Orn-Pro-cha-Trp-Leu]

IC50 activity group, enzyme release assay [2]: ≤ 200 nM
Molecule: {Acetyl(4-pyridyl)}-F[Orn]P[dCha]W[Nle] (lactam 2-C (inferred)) [Fbi-Phe-[Orn-Pro-cha-Trp-Nle]]

IC50 activity group, enzyme release assay [2]: ≤ 2000 nM
Molecule: FXPXWX (not fully specified; Ac-; Orn2; cha4 (D); Cit6; cyclic [2-6]) [Ac-Phe-[Orn-Pro-cha-Trp-Cit]]

IC50 activity group, enzyme release assay [2]: ≤ 2000 nM
B4: Ac-Phe-[Orn-Pro-cha-Trp-Guf] (peptide)
peptide: Ac-F[Orn]P[dCha]W[Phe(4-guanidino)]
modifications: lactam (positions not given here); not fully specified (bridges); printed as Ac-Phe-[Orn-Pro-cha-Trp-Guf]

IC50 activity group, enzyme release assay [2]: ≤ 50 nM
Molecule: Ac-F[Orn]P[d(hLeu)]W[Nle] (lactam 2-C (inferred)) [Ac-Phe-[Orn-Pro-hle-Trp-Nle]]

IC50 activity group, enzyme release assay [2]: ≤ 50 nM
B5: Ac-Phe-[Orn-Pro-cha-Trp-Tyr] (peptide)
peptide: Ac-F[Orn]P[dCha]WY
modifications: lactam (positions not given here); not fully specified (bridges); printed as Ac-Phe-[Orn-Pro-cha-Trp-Tyr]

IC50 activity group, enzyme release assay [2]: ≤ 50 nM
B6: Ac-Phe-[Orn-Pro-cha-Trp-Phe] (peptide)
peptide: Ac-F[Orn]P[dCha]WF
modifications: lactam (positions not given here); not fully specified (bridges); printed as Ac-Phe-[Orn-Pro-cha-Trp-Phe]

IC50 activity group, enzyme release assay [2]: ≤ 2000 nM
Molecule: FXPXWR (not fully specified; Ac-; Orn2; cha4 (D); Arg(CH2CH2)6; cyclic [2-6]) [Ac-Phe-[Orn-Pro-cha-Trp-Arg(CH2CH2)]]
